Columns and labels:
Assay type in all cases: in vivo
[1] = system: winter barley (Hordeum vulgare); assay: Test B postemergence plant response; conditions: Postemergence
Outline: (§1)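 Visual ratings from 0 (no effect) to 100 (complete control), made against controls 13–15 days after treatment, kept in a greenhouse. Compounds were applied postemergence to potted plants at the 1- to 4-leaf stage (2–18 cm).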

[2] = system: chickweed (Stellaria media); assay: Test B postemergence plant response; conditions: Postemergence
Outline: as §1

[3] = system: windgrass (Apera spica-venti); assay: Test B postemergence plant response; conditions: Postemergence, scale 0 (no effect) to 100 (complete control)
Outline: as §1

[4] = system: canarygrass (Phalaris minor); assay: Test B postemergence plant response; conditions: Postemergence
Outline: as §1

[5] = system: blackgrass (Alopecurus myosuroides); assay: Test B pre-/postemergence plant response
Outline: (§2)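 Visual injury, 0–100 scale (100 = complete control), rated against controls after 13 to 15 days in greenhouse. Pre-emergence: seeds in loam/sand soil, treated at planting. Post-emergence: 1- to 4-leaf plants (2 to 18 cm) in peat/vermiculite medium. Compounds formulated in non-phytotoxic solvent with surfactant.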

[6] = system: yellow nutsedge (Cyperus esculentus); assay: Test B pre-/postemergence plant response
Outline: as §2

[7] = system: wild oat (Avena fatua); assay: Test B pre-/postemergence plant response
Outline: as §2

[8] = system: Italian ryegrass (Lolium multiflorum); assay: Test B pre-/postemergence plant response
Outline: as §2

[9] = system: lambsquarters (Chenopodium album); assay: Test B pre-/postemergence plant response
Outline: as §2

[10] = system: Surinam grass (Brachiaria decumbens); assay: Test B pre-/postemergence plant response
Outline: as §2

[11] = system: velvetleaf (Abutilon theophrasti); assay: Test B pre-/postemergence plant response
Outline: as §2

[12] = system: woolly cupgrass (Eriochloa villosa); assay: Test B pre-/postemergence plant response
Outline: as §2

[13] = system: soybean (Glycine max); assay: Test B pre-/postemergence plant response
Outline: as §2

[14] = system: corn (Zea mays); assay: Test B pre-/postemergence plant response
Outline: as §2

[15] = system: ragweed (common ragweed, Ambrosia elatior); assay: Test B pre-/postemergence plant response
Outline: as §2

[16] = system: johnsongrass (Sorghum halepense); assay: Test B pre-/postemergence plant response
Outline: as §2

[17] = system: bermudagrass (Cynodon dactylon); assay: Test B pre-/postemergence plant response
Outline: as §2

[18] = system: large crabgrass (Digitaria sanguinalis); assay: Test B pre-/postemergence plant response
Outline: as §2

[19] = 31 g ai/ha, scale 0 to 100 (0 no effect, 100 complete control)
[20] = 62 g ai/ha, scale 0 (no effect) to 100 (complete control), 13 to 15 days
[21] = 125 g ai/ha, visual rating after 13 to 15 days, scale 0 (no effect) to 100 (complete control)
[22] = 250 g ai/ha, Preemergence, 0 to 100 scale
[23] = Postemergence, 31 g ai/ha, scale 0 to 100 (0 no effect, 100 complete control)
[24] = Postemergence, 62 g ai/ha, scale 0 (no effect) to 100 (complete control), 13 to 15 days
[25] = Postemergence, 125 g ai/ha, visual rating after 13 to 15 days, scale 0 (no effect) to 100 (complete control)
[26] = Postemergence, 250 g ai/ha, scale 0 to 100
[27] = Preemergence, 31 g ai/ha, scale 0 to 100 (0 no effect, 100 complete control)
[28] = Preemergence, 62 g ai/ha, scale 0 to 100, 0 no effect, 100 complete control
[29] = Preemergence, 125 g ai/ha, 0 to 100 scale

Cc1cc(F)ccc1-n1c(-c2ccccc2)ncc(C(=O)C2=C(O)CCCC2=O)c1=O [Compound 48]
60: Plant response rating, Nutsedge, Yellow [6, 25]
65: Plant response rating, Corn [14, 23] | Plant response rating, Ragweed [15, 27]
75: Plant response rating, Velvetleaf [11, 27] | Cupgrass, Woolly plant response rating [12, 29] | Plant response rating, Crabgrass, Large [18, 27]
15: Plant response rating, Oat, Wild [7, 22]
30: Plant response rating, Canarygrass [4, 19] | Plant response rating, Canarygrass [4, 20] | Blackgrass plant response rating [5, 26] | Plant response rating, Ryegrass, Italian [8, 25]
98: Plant response rating, Velvetleaf [11, 25] | Plant response rating, Soybean [13, 25] | Plant response rating, Johnsongrass [16, 22] | Plant response rating, Bermudagrass [17, 25]
45: Plant response rating, Canarygrass [4, 21] | Canarygrass plant response rating ([4]; 250 g ai/ha, scale 0 to 100) | Plant response rating, Nutsedge, Yellow [6, 24] | Plant response rating, Johnsongrass [16, 28]
85: Plant response rating, Chickweed [2, 19] | Nutsedge, Yellow plant response rating [6, 29] | Plant response rating, Oat, Wild [7, 25] | Plant response rating, Surinam Grass [10, 24] | Plant response rating, Velvetleaf [11, 24] | Plant response rating, Corn [14, 25] | Corn plant response rating [14, 26] | Plant response rating, Ragweed [15, 24] | Plant response rating, Bermudagrass [17, 23] | Plant response rating, Crabgrass, Large [18, 23] | Plant response rating, Crabgrass, Large [18, 24]
10: Plant response rating, Barley [1, 21] | Barley plant response rating ([1]; 250 g ai/ha, scale 0 to 100) | Plant response rating, Cupgrass, Woolly [12, 27] | Plant response rating, Cupgrass, Woolly [12, 28]
70: Plant response rating, Corn [14, 24]
0: Plant response rating, Blackgrass [5, 23] | Plant response rating, Blackgrass [5, 27] | Plant response rating, Blackgrass [5, 28] | Blackgrass plant response rating [5, 29] | Plant response rating, Oat, Wild [7, 27] | Oat, Wild plant response rating [7, 29] | Plant response rating, Ryegrass, Italian [8, 22] | Plant response rating, Ryegrass, Italian [8, 27] | Ryegrass, Italian plant response rating [8, 29] | Plant response rating, Soybean [13, 27] | Soybean plant response rating [13, 29] | Plant response rating, Corn [14, 22] | Plant response rating, Corn [14, 27] | Plant response rating, Corn [14, 28] | Corn plant response rating [14, 29]
5: Plant response rating, Barley [1, 19] | Plant response rating, Barley [1, 20] | Plant response rating, Blackgrass [5, 22] | Plant response rating, Blackgrass [5, 24] | Plant response rating, Ryegrass, Italian [8, 24]
95: Plant response rating, Chickweed [2, 21] | Plant response rating, Lambsquarters [9, 24] | Plant response rating, Surinam Grass [10, 25] | Plant response rating, Cupgrass, Woolly [12, 22] | Cupgrass, Woolly plant response rating [12, 26] | Plant response rating, Soybean [13, 24] | Plant response rating, Ragweed [15, 22] | Johnsongrass plant response rating [16, 26] | Plant response rating, Bermudagrass [17, 24] | Plant response rating, Crabgrass, Large [18, 25] | Crabgrass, Large plant response rating [18, 26]
50: Plant response rating, Oat, Wild [7, 24]
100: Chickweed plant response rating ([2]; 250 g ai/ha, scale 0 to 100) | Plant response rating, Lambsquarters [9, 22] | Plant response rating, Lambsquarters [9, 25] | Lambsquarters plant response rating [9, 26] | Plant response rating, Lambsquarters [9, 27] | Plant response rating, Lambsquarters [9, 28] | Lambsquarters plant response rating [9, 29] | Plant response rating, Surinam Grass [10, 22] | Surinam Grass plant response rating [10, 29] | Plant response rating, Velvetleaf [11, 22] | Velvetleaf plant response rating [11, 29] | Plant response rating, Bermudagrass [17, 22] | Bermudagrass plant response rating [17, 26] | Plant response rating, Bermudagrass [17, 27] | Plant response rating, Bermudagrass [17, 28] | Bermudagrass plant response rating [17, 29] | Plant response rating, Crabgrass, Large [18, 22] | Crabgrass, Large plant response rating [18, 29]
20: Plant response rating, Blackgrass [5, 25] | Plant response rating, Nutsedge, Yellow [6, 27] | Plant response rating, Soybean [13, 22] | Plant response rating, Johnsongrass [16, 27]
90: Plant response rating, Chickweed [2, 20] | Plant response rating, Windgrass ([3]; 125 g ai/ha, visual rating after 13 to 15 days) | Plant response rating, Nutsedge, Yellow [6, 22] | Plant response rating, Cupgrass, Woolly [12, 25] | Plant response rating, Ragweed [15, 25] | Ragweed plant response rating [15, 29] | Johnsongrass plant response rating [16, 29] | Plant response rating, Crabgrass, Large [18, 28]
80: Plant response rating, Windgrass ([3]; 62 g ai/ha, 13 to 15 days) | Plant response rating, Surinam Grass [10, 27] | Plant response rating, Cupgrass, Woolly [12, 23] | Plant response rating, Cupgrass, Woolly [12, 24] | Plant response rating, Johnsongrass [16, 24] | Plant response rating, Johnsongrass [16, 25]

Reference: patent US8952024B2, “Herbicidal pyrimidone derivatives” (E I du Pont de Nemours and Company, priority 2009, dated 2015)
